Experimental data as given in the NIST ThermoML archive (doi:10.1016/j.jct.2012.06.014).

Experiment: cn = amount concentration of the nth substance listed, in mol/dm3
Conditions: 298.15 K, 101 kPa, Liquid, Open capillary

SMILES: O=S(=O)([O-])[O-].O=S(=O)([O-])[O-].O=S(=O)([O-])[O-].[Fe+3].[Fe+3] [ferric sulfate] + O
- binary diffusion coefficient (c1 = 0.05): 1.48e-09 m2/s
- binary diffusion coefficient (c1 = 0.06): 1.45e-09 m2/s
- binary diffusion coefficient (c1 = 0.08): 1.42e-09 m2/s
- binary diffusion coefficient (c1 = 0.1): 1.41e-09 m2/s
- binary diffusion coefficient (c1 = 0.15): 1.42e-09 m2/s
- binary diffusion coefficient (c1 = 0.2): 1.48e-09 m2/s
